# Data published in patent publication US20240246937A1 (MERCK SHARP & DOHME LLC, priority 2021, published 2024).
# Molecular target: recombinant IL4I1 (Homo sapiens (Human), UniProt Q96RQ9)
# Assay: IL4I1 Enzymatic Assay (Amplex Red/HRP coupled fluorescence detection of H2O2)
# Type: biochemical
# Conditions: 240 min; recombinant IL4I1, four-hour pre-incubation with compound
# Method in brief: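 Ten-point, 1:3 compound titrations were fitted by four-parameter sigmoidal regression to give EC50. Resorufin fluorescence (544/590 nm) from Amplex Red/HRP-coupled H2O2 detection was read 120 min after adding 1 mM each aromatic amino acid to 1 nM IL4I1, following a 4 h compound pre-incubation in pH 7.0 Hepes buffer.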
# Chain of recombinant IL4I1 (Q96RQ9 22-567): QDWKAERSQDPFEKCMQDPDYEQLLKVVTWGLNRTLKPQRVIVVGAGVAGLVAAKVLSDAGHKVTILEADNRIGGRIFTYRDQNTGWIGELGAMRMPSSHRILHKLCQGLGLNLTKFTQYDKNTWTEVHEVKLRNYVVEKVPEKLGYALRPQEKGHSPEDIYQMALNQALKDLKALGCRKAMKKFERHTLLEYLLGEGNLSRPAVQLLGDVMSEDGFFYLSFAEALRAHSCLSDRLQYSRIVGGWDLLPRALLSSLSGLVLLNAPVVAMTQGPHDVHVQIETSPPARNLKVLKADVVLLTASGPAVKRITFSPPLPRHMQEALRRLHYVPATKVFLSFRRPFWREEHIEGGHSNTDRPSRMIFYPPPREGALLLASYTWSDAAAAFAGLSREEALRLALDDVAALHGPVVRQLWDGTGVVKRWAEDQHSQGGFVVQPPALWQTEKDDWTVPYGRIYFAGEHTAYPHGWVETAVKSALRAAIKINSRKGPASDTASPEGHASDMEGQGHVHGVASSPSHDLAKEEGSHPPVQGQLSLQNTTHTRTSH
row,EC50,SMILES
1,10 nM,"CC1(n2ccn(Cc3cc(-c4ccccc4)no3)c(=O)c2=O)CCC1 [Example 181, 1-(1-methylcyclobutyl)-4-((3-phenylisoxazol-5-yl)methyl)-1,4-dihydropyrazine-2,3-dione]"
2,24 nM,"O=C1C(=O)N(C2CC3CC2C3)CCN1Cc1ccc(-c2ccccc2)nn1 (stereo not shown) [Example 183, 1-(bicyclo[2.1.1]hexan-2-yl)-4-((6-phenylpyridazin-3-yl)methyl)piperazine-2,3-dione]"
3,25 nM,"O=C1C(=O)N(C2CC3CC2C3)CCN1Cc1ccc(-c2ccccc2F)nn1 (stereo not shown) [Example 184, 1-(bicyclo[2.1.1]hexan-2-yl)-4-((6-(2-fluorophenyl)pyridazin-3-yl)methyl)piperazine-2,3-dione]"
4,8 nM,"CC1(N2CCN(Cc3cc(-c4cccc(F)c4)no3)C(=O)C2=O)CCC1 [Example 185, 1-((3-(3-fluorophenyl)isoxazol-5-yl)methyl)-4-(1-methylcyclobutyl)piperazine-2,3-dione]"
5,4 nM,"CC1(n2ccn(Cc3cc(-c4cccc(F)c4)no3)c(=O)c2=O)CCC1 [Example 186, 1-((3-(3-fluorophenyl)isoxazol-5-yl)methyl)-4-(1-methylcyclobutyl)-1,4-dihydropyrazine-2,3-dione]"
6,8 nM,"O=c1c(=O)n(C23CC(C2)C3)ccn1Cc1cc(-c2nccs2)on1 [Example 187, 1-(bicyclo[1.1.1]pentan-1-yl)-4-((5-(thiazol-2-yl)isoxazol-3-yl)methyl)-1,4-dihydropyrazine-2,3-dione]"
7,10 nM,"CC1(N2CCN(Cc3cc(-c4ccc(F)cc4)no3)C(=O)C2=O)CCC1 [Example 188, 1-((3-(4-fluorophenyl)isoxazol-5-yl)methyl)-4-(1-methylcyclobutyl)piperazine-2,3-dione]"
8,4 nM,"CC1(n2ccn(Cc3cc(-c4ccc(F)cc4)no3)c(=O)c2=O)CCC1 [Example 189, 1-((3-(4-fluorophenyl)isoxazol-5-yl)methyl)-4-(1-methylcyclobutyl)-1,4-dihydropyrazine-2,3-dione]"
9,31 nM,"CC1(N2CCN(CC34CC(c5ccccc5)(C3)C4(F)F)C(=O)C2=O)CCC1 [Example 190, 1-((2,2-difluoro-3-phenylbicyclo[1.1.1]pentan-1-yl)methyl)-4-(1-methylcyclobutyl)piperazine-2,3-dione]"
10,35 nM,"O=C1C(=O)N(C23CC(C2)C3)CCN1CC12CC(c3ccccc3)(C1)C2(F)F [Example 191, 1-(bicyclo[1.1.1]pentan-1-yl)-4-((2,2-difluoro-3-phenylbicyclo[1.1.1]pentan-1-yl)methyl)piperazine-2,3-dione]"
11,13 nM,"O=c1c(=O)n(C2CCC2)ccn1Cc1ccc(-c2c(F)cccc2F)nn1 [Example 192, 1-cyclobutyl-4-((6-(2,6-difluorophenyl)pyridazin-3-yl)methyl)-1,4-dihydropyrazine-2,3-dione]"
12,8 nM,"O=c1c(=O)n(C23CC(C2)C3)ccn1Cc1ccc(-c2ccccc2F)nn1 [Example 193, 1-(bicyclo[1.1.1]pentan-1-yl)-4-((6-(2-fluorophenyl)pyridazin-3-yl)methyl)-1,4-dihydropyrazine-2,3-dione]"
13,41 nM,"O=C1C(=O)N(C2(CF)CC2)CCN1Cc1nnc(-c2ccccc2F)s1 [Example 194, 1-(1-(fluoromethyl)cyclopropyl)-4-((5-(2-fluorophenyl)-1,3,4-thiadiazol-2-yl)methyl)piperazine-2,3-dione]"
14,48 nM,"O=C1C(=O)N(C2(CF)CC2)CCN1Cc1ccc(-c2ccccc2F)nn1 [Example 195, 1-(1-(fluoromethyl)cyclopropyl)-4-((6-(2-fluorophenyl)pyridazin-3-yl)methyl)piperazine-2,3-dione]"
15,11 nM,"O=C1C(=O)N(C2(CF)CC2)CCN1Cc1cc(-c2ccccc2)no1 [Example 196, 1-(1-(fluoromethyl)cyclopropyl)-4-((3-phenylisoxazol-5-yl)methyl)piperazine-2,3-dione]"
16,33 nM,"CC1(n2ccn(Cc3ccc(-c4ccccc4F)nn3)c(=O)c2=O)CC1 [Example 197, 1-((6-(2-fluorophenyl)pyridazin-3-yl)methyl)-4-(1-methylcyclopropyl)-1,4-dihydropyrazine-2,3-dione]"
17,76 nM,"N#CC1(n2ccn(Cc3ccc(-c4ccccc4F)nn3)c(=O)c2=O)CC1 [Example 198, 1-(4-((6-(2-fluorophenyl)pyridazin-3-yl)methyl)-2,3-dioxo-3,4-dihydropyrazin-1(2H)-yl)cyclopropane-1-carbonitrile]"
18,24 nM,"CC1(n2ccn(Cc3cc(-c4ccccn4)no3)c(=O)c2=O)CC1 [Example 199, 1-(1-methylcyclopropyl)-4-((3-(pyridin-2-yl)isoxazol-5-yl)methyl)-1,4-dihydropyrazine-2,3-dione]"

# The next lines start with the compound.
row,SMILES,EC50
1,"O=C1C(=O)N(C2CCC2)CCN1Cc1cc(-c2cccc(F)c2)no1 [Example 158, 1-cyclobutyl-4-((3-(3-fluorophenyl)isoxazol-5-yl)methyl)piperazine-2,3-dione]",4 nM
2,"O=c1c(=O)n(C2CCC2)ccn1Cc1cc(-c2ccc(F)cc2)no1 [Example 159, 1-cyclobutyl-4-((3-(4-fluorophenyl)isoxazol-5-yl)methyl)-1,4-dihydropyrazine-2,3-dione]",1 nM
3,"O=c1c(=O)n(C2CCC2)ccn1Cc1cnn(-c2ccccc2)c1 [Example 160, 1-cyclobutyl-4-((1-phenyl-1H-pyrazol-4-yl)methyl)-1,4-dihydropyrazine-2,3-dione]",5 nM
4,"O=c1c(=O)n(C2CCC2)ccn1Cc1cc(-c2ccccn2)no1 [Example 161, 1-cyclobutyl-4-((3-(pyridin-2-yl)isoxazol-5-yl)methyl)-1,4-dihydropyrazine-2,3-dione]",5 nM
5,"O=C1C(=O)N(C2CCCC2)CCN1Cc1cc(-c2ccc(F)cc2)no1 [Example 162, 1-cyclopentyl-4-((3-(4-fluorophenyl)isoxazol-5-yl)methyl)piperazine-2,3-dione]",4 nM
6,"O=c1c(=O)n(C2CCCC2)ccn1Cc1cc(-c2ccccn2)no1 [Example 163, 1-cyclopentyl-4-((3-(pyridin-2-yl)isoxazol-5-yl)methyl)-1,4-dihydropyrazine-2,3-dione]",6 nM
7,"O=c1c(=O)n(C2CCCC2)ccn1Cc1cc(-c2ccc(F)cc2)no1 [Example 164, 1-cyclopentyl-4-((3-(4-fluorophenyl)isoxazol-5-yl)methyl)-1,4-dihydropyrazine-2,3-dione]",1 nM
8,O=c1c(=O)n(C2CCC2)ccn1Cc1cc(-c2ccccc2)ns1 [Example 165],12 nM
9,"CC1(N2CCN(Cc3nnc(-c4ccccc4)s3)C(=O)C2=O)CCC1 [Example 166, 1-(1-methylcyclobutyl)-4-((5-phenyl-1,3,4-thiadiazol-2-yl)methyl)piperazine-2,3-dione]",10 nM
10,"CC1(N2CCN(Cc3cc(-c4ccccc4)on3)C(=O)C2=O)CCC1 [Example 167, 1-(1-methylcyclobutyl)-4-((5-phenylisoxazol-3-yl)methyl)piperazine-2,3-dione]",9 nM
11,"O=c1c(=O)n(C2CCC2)ccn1Cc1cc(-c2ccccc2)n[nH]1 [Example 168, 1-cyclobutyl-4-((3-phenyl-1H-pyrazol-5-yl)methyl)-1,4-dihydropyrazine-2,3-dione]",6 nM
12,"O=c1c(=O)n(C23CC(C2)C3)ccn1Cc1cc(-c2ccccn2)on1 [Example 169, 1-(bicyclo[1.1.1]pentan-1-yl)-4-((5-(pyridin-2-yl)isoxazol-3-yl)methyl)-1,4-dihydropyrazine-2,3-dione]",7 nM
13,"O=C1C(=O)N([C@H]2C[C@H]3C[C@H]3C2)CCN1Cc1cc(-c2ccccc2)no1 [Example 170, 1-((cis)-bicyclo[3.1.0]hexan-3-yl)-4-((3-phenylisoxazol-5-yl)methyl)piperazine-2,3-dione]",4 nM
14,"O=C1C(=O)N(C23CC(C2)C3)CCN1Cc1cc(-c2ccccc2)no1 [Example 171, 1-(bicyclo[1.1.1]pentan-1-yl)-4-((3-phenylisoxazol-5-yl)methyl)piperazine-2,3-dione]",6 nM
15,"O=c1c(=O)n(C23CC(C2)C3)ccn1Cc1cc(-c2ccccn2)no1 [Example 172, 1-(bicyclo[1.1.1]pentan-1-yl)-4-((3-(pyridin-2-yl)isoxazol-5-yl)methyl)-1,4-dihydropyrazine-2,3-dione]",7 nM
16,"O=c1c(=O)n(C2CCC2)ccn1Cc1cc(-c2ccccc2)sn1 [Example 173, 1-cyclobutyl-4-((5-phenylisothiazol-3-yl)methyl)-1,4-dihydropyrazine-2,3-dione]",14 nM
17,"O=C1C(=O)N(C2CCC2)CCN1Cc1cn(-c2ccccc2)cn1 [Example 174, 1-cyclobutyl-4-((1-phenyl-1H-imidazol-4-yl)methyl)piperazine-2,3-dione]",39 nM
18,"O=c1c(=O)n(C2CCC2)ccn1Cc1cn(-c2ccccc2)cn1 [Example 175, 1-cyclobutyl-4-((1-phenyl-1H-imidazol-4-yl)methyl)-1,4-dihydropyrazine-2,3-dione]",14 nM
19,"O=C1C(=O)N(C2CCC2)CCN1Cc1ccc(-n2ncnn2)cn1 [Example 176, 1-((5-(2H-tetrazol-2-yl)pyridin-2-yl)methyl)-4-cyclobutylpiperazine-2,3-dione]",40 nM
20,"O=C1C(=O)N(C2CCC2)CCN1CC12CC(c3ccccn3)(C1)C2 [Example 177, 1-cyclobutyl-4-((3-(pyridin-2-yl)bicyclo[1.1.1]pentan-1-yl)methyl)piperazine-2,3-dione]",84 nM
21,"CC1CN(Cc2ccc(-n3nccn3)cn2)C(=O)C(=O)N1C1CCC1 (stereo not shown) [Example 178, 1-((5-(2H-1,2,3-triazol-2-yl)pyridin-2-yl)methyl)-4-cyclobutyl-5-methylpiperazine-2,3-dione]",52 nM
22,"O=C1C(=O)N(C23CC(C2)C3)CCN1Cc1nnc(-c2ccccc2Cl)s1 [Example 179, 1-(bicyclo[1.1.1]pentan-1-yl)-4-((5-(2-chlorophenyl)-1,3,4-thiadiazol-2-yl)methyl)piperazine-2,3-dione]",13 nM
